{
  "source": "patent US20230026869A1",
  "about": "“CRYSTAL FORM OF NUCLEOPROTEIN INHIBITOR AND USE THEREOF” (CHIA TAI TIANQING PHARMACEUTICAL GROUP CO., LTD., priority 2019, published 2023)",
  "test": "Study on solid stability of crystal form P (high temperature, high humidity, light, accelerated conditions; XRPD and HPLC)",
  "format": "physicochemical",
  "description": "In order to evaluate the solid stability of the crystal form P, the crystal form P was investigated for influence factors (high temperature, high humidity and light), stability under accelerated conditions and stability under intermediate conditions. The crystal form P was placed at high temperature (60° C., closed), high humidity (room temperature, 92.5% RH, sealing film wrapping and pricking 5-10 small holes) for 5 days and 10 days, then placed under visible light and ultraviolet light (a light-shielding control group was wrapped by tinfoil paper) according to ICH conditions (visible light illumination reached 1.2E+06 Lux hrs, ultraviolet light illumination reached 200 W·hrs/m) in a closed manner, and meanwhile, placed with stability under accelerated conditions ([…]/75% RH, sealing film wrapping and pricking 5-10 small holes) for 10 days and 1-2 months.",
  "key": {"[1]": {"conditions": "92.5% RH, room temperature, Day 5"}, "[2]": {"conditions": "92.5% RH, room temperature, Day 10"}, "[3]": {"conditions": "Light-shielding control group, taken simultaneously with the visible light + ultraviolet groups"}, "[4]": {"conditions": "Light-shielding control group, taken simultaneously with the visible light group"}, "[5]": {"conditions": "Visible + ultraviolet (ICH), illumination reaches 200 W · hrs/m^2"}, "[6]": {"conditions": "Visible light (ICH), illumination reaches 1.2E+06 Lux · hrs"}},
  "data": [
    {"molecule": "CC1(NC(=O)C(=O)c2c(Cl)c(C(=O)Nc3cc(F)c(F)c(F)c3)c3n2CCC3)CCC(CC(=O)O)CC1", "note": "(centres unmarked) [crystal form P]", "values": [
      {"measurement": "Crystal form change", "setting": "60° C., closed, Day 5", "result": "Unchanged"},
      {"measurement": "Relative purity", "setting": "60° C., closed, Day 5", "result": 100.0, "unit": "%"},
      {"measurement": "Crystal form change", "setting": "60° C., closed, Day 10", "result": "Unchanged"},
      {"measurement": "Relative purity", "setting": "60° C., closed, Day 10", "result": 100.0, "unit": "%"},
      {"measurement": "Crystal form change", "setting": "60° C./75% RH, 1 month", "result": "Unchanged"},
      {"measurement": "Relative purity", "setting": "60° C./75% RH, 1 month", "result": 100.0, "unit": "%"},
      {"measurement": "Crystal form change", "setting": "60° C./75% RH, Day 10", "result": "Unchanged"},
      {"measurement": "Relative purity", "setting": "60° C./75% RH, Day 10", "result": 100.0, "unit": "%"},
      {"measurement": "Crystal form change", "setting": "60° C./75% RH, Month 2", "result": "Unchanged"},
      {"measurement": "Relative purity", "setting": "60° C./75% RH, Month 2", "result": 100.0, "unit": "%"},
      {"measurement": "Crystal form change", "setting": "[1]", "result": "Unchanged"},
      {"measurement": "Relative purity", "setting": "[1]", "result": 100.0, "unit": "%"},
      {"measurement": "Crystal form change", "setting": "[2]", "result": "Unchanged"},
      {"measurement": "Relative purity", "setting": "[2]", "result": 100.0, "unit": "%"},
      {"measurement": "Crystal form change", "setting": "[3]", "result": "Unchanged"},
      {"measurement": "Relative purity", "setting": "[3]", "result": 100.0, "unit": "%"},
      {"measurement": "Crystal form change", "setting": "[4]", "result": "Unchanged"},
      {"measurement": "Relative purity", "setting": "[4]", "result": 99.9, "unit": "%"},
      {"measurement": "Crystal form change", "setting": "[5]", "result": "Unchanged"},
      {"measurement": "Relative purity", "setting": "[5]", "result": 100.0, "unit": "%"},
      {"measurement": "Crystal form change", "setting": "[6]", "result": "Unchanged"},
      {"measurement": "Relative purity", "setting": "[6]", "result": 100.0, "unit": "%"},
      {"measurement": "Crystal form change", "setting": "under all stability conditions", "result": "unchanged"}
    ]}
  ]
}
